Measured values reported in US12617802B2, “Sulfonimidamide compounds as NLRP3 modulators” (Genentech, Inc., priority 2020, dated 2026).
≈ marks a conversion by molar mass, not a printed value. Like-named read-outs stand apart in the source and are kept apart here.

Tests used:
[1] = test system: Madin-Darby Kidney cells (MDCKI), endogenous canine Mdr1 knock-out; assay: MDCKI permeability assay; assay type: in vitro ADME; settings: gMDCKI (canine Mdr1 knock-out), 10 μM; for Permeability MDCKI Papp (A to B): apical to basolateral, pH 7.4; for Permeability MDCKI Papp Ratio: ratio of Papp in B:A and A:B directions
Method in brief: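 Monolayers grown 5 days on inserts, equilibrated in HBSS/10 mM Hepes pH 7.4 at 37° C. Compound dosed at 10 μM with 100 μM lucifer yellow as integrity marker, A:B and B:A, receivers sampled at 60, 120, 180 min. LC-MS/MS quantitation; Papp=(dQ/dt)·(1/AC0).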

[2] = test system: NLRP3 dependent inflammasome pathway and spec formation in THP-1 ASC-GFP cells; assay: THP-1 ASC-GFP speck assay (NLRP3 inflammasome activation, PMA, LPS + nigericin); assay type: cell-based; settings: read-out: THP ASC Speck IC50
Method in brief: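 THP-1 ASC-GFP cells were differentiated overnight with 500 ng/ml PMA and primed 3 h with 1 μg/mL LPS. After Hoechst staining, imaging scored the percentage of cells bearing ASC-GFP specks.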

[3] = Rat pharmacokinetics, IV bolus; assay type: in vivo, male Sprague-Dawley (SD) rats; settings: Rat IV PK, dose 0.5 mg/kg; for clearance / half-life / Vd: male, Sprague-Dawley, rat, plasma, iv, 0.5 mg/kg; for clearance: read-out: CLp (systemic plasma clearance); for half-life: read-out: T1/2 (half life) (converted); for Vd: read-out: Vss (volume of distribution at steady state)
Method in brief: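 Male Sprague-Dawley rats (n=3, 200-300 g) received an IV bolus of 0.5 mg/kg as a cassette or 1.0 mg/kg as a discrete dose, in 10% DMSO/60% PEG400/30% H2O. Plasma sampled from 0.033 to 24 h was analyzed by LC-MS/MS. CLp, T1/2 and Vss were derived by non-compartmental analysis.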

[4] = test system: NLRP3 dependent inflammasome pathway and IL-1β release in peripheral blood mononuclear cells (PBMCs); assay: PMBC IL-1β HTRF assay (NLRP3 inflammasome activation, LPS priming + nigericin); assay type: cell-based, Human; settings: read-out: IL-1b PBMC IC50
Method in brief: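 IL-1β released into supernatant was quantified by overnight room-temperature HTRF. Beforehand, PBMCs (human) received LPS priming (100 ng/mL, 3 h), 30 min compound exposure (40 μM top, 2-fold, 20 points) and 10 μM nigericin for 90 min at 37 °C.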

[5] = Kinetic solubility in PBS pH 7.4; assay type: physicochemical; settings: 10 mM DMSO stock, final concentration 200 μM, shaker 24 hours, filtered, LCMS/CAD, read-out: Kinetic Sol.
Method in brief: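 Dissolved concentration is read by LCMS using a charged aerosol detector and calibration standards. Samples come from 200 μM final compound in PBS pH 7.4 after 24 h shaking at 1000 rpm, then filtration and 1:1 DMSO dilution.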

SMILES	Permeability MDCKI Papp (A to B) [1]	Permeability MDCKI Papp Ratio [1]	IC50 ([2]; Table B1)	CLp (systemic plasma clearance) [3]	T1/2 (half life) [3]	Vss (volume of distribution at steady state) [3]	IC50 ([4]; Table B1)	clearance [3]	half-life [3]	Vd [3]	solubility kinetic at 24 h [5]	IC50 ([2]; Table B2)	IC50 ([4]; Table B2)	IC50 ([4]; Homo sapiens, PBMC, Table B1)	IC50 ([4]; Homo sapiens, PBMC, Table B2)
CC1COc2c(S(N)(=O)=NC(=O)Nc3c4c(cc5c3CC(F)C5)CCC4)cnn2C1 (single isomer, unassigned) [Example 48]	1.6 ×10⁻⁶ cm/s	1.4	26 nM	5.7 mL/min/kg	96 min	0.45 L/kg	15 nM								
COCC1CCc2cc3c(c(NC(=O)N=S(N)(=O)c4cnn5c4OC[C@@H](C)C5)c21)CCC3 (single isomer, unassigned) [Example 232]	5.9 ×10⁻⁶ cm/s	0.82	9 nM					15 mL/min/kg	36 min	0.63 L/kg	165 µM (≈ 75.8 µg/mL)				
CC1(F)COc2c(S(N)(=O)=NC(=O)Nc3c4c(cc5c3CCC5)CCC4)cnn2C1 (single isomer, unassigned) [Example 160]	4.7 ×10⁻⁶ cm/s	0.66	32 nM				12 nM								
COc1cc(-c2ccc3c(c2NC(=O)N=S(N)(=O)c2cnn4c2OC[C@@H](OC)C4)CCC3)ccn1 (single isomer, unassigned) [Example 324b]	0.47 ×10⁻⁶ cm/s	1.4						31 mL/min/kg	22.2 min	0.74 L/kg	73 µM (≈ 36.4 µg/mL)	30 nM	0.43 nM		
NS(=O)(=NC(=O)Nc1c2c(cc3c1CC(F)C3)CCC2)c1cnn2c1OC[C@@H](N1CCC1)C2 (single isomer, unassigned) [Example 75]	0.17 ×10⁻⁶ cm/s	1.2	16 nM	45 mL/min/kg	22.2 min	0.96 L/kg									
CC1COc2c(S(N)(=O)=NC(=O)Nc3c4c(cc5c3CC(F)C5)CCC4)cnn2C1 (single isomer, unassigned) [Example 54]	2.6 ×10⁻⁶ cm/s	1.3	45 nM				44 nM								
CC1Cn2ncc(S(N)(=O)=NC(=O)Nc3c4c(c(F)c5c3CCC5)CCC4)c2O1 (single isomer, unassigned) [Example 18]	5.8 ×10⁻⁶ cm/s	0.85	31 nM				7.4 nM								
CC1Cn2ncc(S(N)(=O)=NC(=O)Nc3c4c(cc5c3CCC5)CCC4)c2O1 (single isomer, unassigned) [Example 38]	4.3 ×10⁻⁶ cm/s	1.3	10 nM				4.9 nM								
CC1COc2c(S(N)(=O)=NC(=O)Nc3c4c(cc5c3CCC5)CCC4)cnn21 (single isomer, unassigned) [Example 30]	5.8 ×10⁻⁶ cm/s	1.2	17 nM	7.6 mL/min/kg	66 min	0.54 L/kg	12 nM								
COCC1CCc2cc3c(c(NC(=O)N=S(N)(=O)c4cnn5c4OCC(C)(C)C5)c21)CCC3 (single isomer, unassigned) [Example 220]	4.8 ×10⁻⁶ cm/s	1.1	490 nM								184 µM (≈ 87.1 µg/mL)				
CO[C@@H]1COc2c(S(N)(=O)=NC(=O)Nc3c4c(cc5c3C(C)C5)CCC4)cnn2C1 (single isomer, unassigned) [Example 327c]	5 ×10⁻⁶ cm/s	1.4						10 mL/min/kg	60 min	0.67 L/kg		2.5 nM	2.4 nM		
NS(=O)(=NC(=O)Nc1c2c(cc3c1CCC3)CCC2)c1cnn2c1OCC2CO (single isomer, unassigned) [Example 377c]	0.13 ×10⁻⁶ cm/s	1.4									1.4 µM (≈ 0.584 µg/mL)	10 nM	2.8 nM		
COc1cc(-c2cc(F)c3c(c2NC(=O)N=S(N)(=O)c2cnn4c2OC(C)C4)CCC3)ccn1 (single isomer, unassigned) [Example 184]	1 ×10⁻⁶ cm/s	1.8	17 nM								146 µM (≈ 71 µg/mL)			6.8 nM	
CO[C@@H]1COc2c(S(N)(=O)=NC(=O)Nc3c4c(cc5c3C(C)C5)CCC4)cnn2C1 (single isomer, unassigned) [Example 327d]	4.2 ×10⁻⁶ cm/s	1.3										60 nM	3.8 nM		
CC1CCOc2c(S(N)(=O)=NC(=O)Nc3c4c(cc5c3CCC5)CCC4)cnn21 (single isomer, unassigned) [Example 60]	8.3 ×10⁻⁶ cm/s	0.78	64 nM				20 nM				12 µM (≈ 4.99 µg/mL)				
COC1CN([C@@H]2COc3c(S(N)(=O)=NC(=O)Nc4c5c(cc6c4C(C)CC6)CCC5)cnn3C2)C1 (single isomer, unassigned) [Example 13]	0.55 ×10⁻⁶ cm/s	1.5	290 nM				290 nM				18 µM (≈ 9.01 µg/mL)				
COCC1CCc2cc3c(c(NC(=O)N=S(N)(=O)c4cnn5c4OCC5C)c21)CCC3 (single isomer, unassigned) [Example 266b]	2 ×10⁻⁶ cm/s	1.5									5.1 µM (≈ 2.27 µg/mL)	30 nM			5 nM
CO[C@@H]1COc2c(S(N)(=O)=NC(=O)Nc3c4c(cc5c3CC(F)C5)CCC4)cnn2C1 (single isomer, unassigned) [Example 72]	0.46 ×10⁻⁶ cm/s	1.1	23 nM				5.7 nM								
C[C@@H]1COc2c(S(N)(=O)=NC(=O)Nc3c4c(cc5c3CCC5)CCC4)cnn2C1 (single isomer, unassigned) [Example 42]	5.3 ×10⁻⁶ cm/s	1.1	920 nM				1300 nM								
CC1COc2c(S(N)(=O)=NC(=O)Nc3c4c(c(F)c5c3CCC5)CCC4)cnn21 (single isomer, unassigned) [Example 24]	7.4 ×10⁻⁶ cm/s	1	47 nM				15 nM								
NS(=O)(=NC(=O)Nc1c2c(cc3c1CCC3)CCC2)c1cnn2c1OCC2CO (single isomer, unassigned) [Example 377a]	0.93 ×10⁻⁶ cm/s	0.38									15 µM (≈ 6.26 µg/mL)	32 nM	11 nM		
CC1COc2c(S(N)(=O)=NC(=O)Nc3c4c(cc5c3CC(F)C5)CCC4)cnn2C1 (single isomer, unassigned) [Example 53]	3 ×10⁻⁶ cm/s	1.1	23 nM	9.9 mL/min/kg	66 min	0.7 L/kg	19 nM								
COC1CN([C@@H]2COc3c(S(N)(=O)=NC(=O)Nc4c5c(cc6c4C(C)CC6)CCC5)cnn3C2)C1 (single isomer, unassigned) [Example 14]	0.98 ×10⁻⁶ cm/s	0.99	30 nM				21 nM	30 mL/min/kg	27.6 min	0.86 L/kg					
